According to patent US20090209577A1, “Novel Triazolopyridine Compounds” (PFIZER INC., priority 2004, published 2009):
Structures can show the parent of a compound that is named as a salt.

These compounds were tested against T1, human p38 kinase alpha (Homo sapiens, UniProt Q16539) (assay: p38 kinase in vitro assay (PHAS-I / 32P-ATP format or EGFRP / 33P-ATP format)). Details: activated human p38 kinase alpha, 50 μM unlabeled ATP; two assay formats, table does not say which.
T1 construct: The coding region of the human p38a cDNA was obtained by PCR-amplification from RNA isolated from the human monocyte cell line THP.1; made in house; host or cells: E. coli DH10B
Assay type: biochemical
Description: The ability of compounds to inhibit human p38 kinase alpha was evaluated using two in vitro assay methods. In the first method, activated human p38 kinase alpha phosphorylates a biotinylated substrate, PHAS-I (phosphorylated heat and acid stable protein-insulin inducible), in the presence of gamma ^32P-ATP (^32P-ATP). PHAS-I was biotinylated prior to the assay and provides a means of capturing the substrate, which is phosphorylated during the assay. p38 Kinase was activated by MKK6. Compounds were tested in 10 fold serial dilutions over the range of 100 μM to 0.001 μM using 1% DMSO. Each concentration of inhibitor was tested in triplicate.
All reactions were carried out in 96 well polypropylene plates. Each reaction well contained 25 mM HEPES pH 7.5, 10 mM magnesium acetate and 50 μM unlabeled ATP. Activation of p38 was required to achieve sufficient signal in the assay. Biotinylated PHAS-1 was used at 1-2 μg per 50 μl reaction volume, with a final concentration of 1.5 μM. Activated human p38 kinase alpha was used at 1 μg per 50 μl reaction volume representing a final concentration of 0.3 μM. Gamma ^32P-ATP was used to follow the phosphorylation of PHAS-1. ^32P-ATP has a specific activity of 3000 Ci/mmol and was used at 1.2 μCi per 50 μl reaction volume. The reaction proceeded either for one hour or overnight at 30° C.
Following incubation, 20 μl of reaction mixture was transferred to a high capacity streptavidin coated filter plate (SAM-streptavidin-matrix, Promega) prewetted with phosphate buffered saline. The transferred reaction mix was allowed to contact the streptavidin membrane of the Promega plate for 1-2 minutes. Following capture of biotinylated PHAS-1 with ^32P incorporated, each well was washed to remove unincorporated ^32P-ATP three times with 2M NaCl, three washes of 2M NaCl with 1% phosphoric, three washes of distilled water and finally a single wash of 95% ethanol. Filter plates were air-dried and 20 μl of scintillant was added. The plates were sealed and counted.
A second assay format was also employed that is based on p38 kinase alpha induced phosphorylation of EGFRP (epidermal growth factor receptor peptide, a 21 mer) in the presence ^33P-ATP. Compounds were tested in 10 fold serial dilutions over the range of 100 μM to 0.001 μM in 1% DMSO. Each concentration of inhibitor was tested in triplicate. Compounds were evaluated in 50 μl reaction volumes in the presence of 25 mM Hepes pH 7.5, 10 mM magnesium acetate, 4% glycerol, 0.4% bovine serum albumin, 0.4 mM DTT, 50 μM unlabeled ATP, 25 μg EGFRP (200 μM), and 0.05 μCi ^33P-ATP. Reactions were initiated by addition of 0.09 μg of activated, purified human GST-p38 kinase alpha. Activation was carried out using GST-MKK6 (5:1, p38:MKK6) for one hour at 30° C. in the presence of 50 μM ATP. Following incubation for 60 minutes at room temperature, the reaction was stopped by addition of 150 μl of AG 1×8 resin in 900 mM sodium formate buffer, pH 3.0 (1 volume resin to 2 volumes buffer). The mixture was mixed three times with pipetting and the resin was allowed to settle. A total of 50 μl of clarified solution head volume was transferred from the reaction wells to Microlite-2 plates. 150 μl of Microscint 40 was then added to each well of the Microlite plate, and the plate was sealed, mixed, and counted.
The above protocol assays were used to determine the IC50 values for compounds in Examples 1-71 above.

T1 sequence (Q16539 whole entry): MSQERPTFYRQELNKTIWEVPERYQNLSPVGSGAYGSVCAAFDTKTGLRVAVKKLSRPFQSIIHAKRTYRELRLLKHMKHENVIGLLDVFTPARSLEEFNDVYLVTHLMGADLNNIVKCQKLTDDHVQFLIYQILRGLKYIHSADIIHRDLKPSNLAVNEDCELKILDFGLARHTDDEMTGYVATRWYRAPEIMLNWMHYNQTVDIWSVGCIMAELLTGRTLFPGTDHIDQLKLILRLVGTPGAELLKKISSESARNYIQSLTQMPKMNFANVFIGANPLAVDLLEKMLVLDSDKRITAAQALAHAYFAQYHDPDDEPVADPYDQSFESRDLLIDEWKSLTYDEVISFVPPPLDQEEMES

SMILES | IC50 [µM]
CC(C)(C)c1nnc2n1CC(c1ocnc1-c1cc(F)c(F)cc1F)CC2 (stereo not drawn) [Example 14, 3-tert-butyl-6-[4-(2,4,5-trifluorophenyl)-1,3-oxazol-5-yl]-5,6,7,8-tetrahydro[1,2,4]triazolo[4,3-a]pyridine] | 0.786
CC(C)(C)c1nnc2ccc(C(=O)c3ccc(F)cc3F)cn12 [Example 15, (3-tert-butyl[1,2,4]triazolo[4,3-a]pyridin-6-yl)(2,4-difluorophenyl)methanone] | 1.05
COC(=O)c1ccc(C)c(-c2nnc3ccc(/C=C/c4ccc(F)cc4F)cn23)c1 [Example 16, methyl 3-{6-[(E)-2-(2,4-difluorophenyl)vinyl][1,2,4]triazolo[4,3-a]pyridin-3-yl}-4-methylbenzoate] | 0.0173
COC(=O)c1ccc(C)c(-c2nnc3ccc(CCc4ccc(F)cc4F)cn23)c1 [Example 17, methyl 3-{6-[2-(2,4-difluorophenyl)ethyl][1,2,4]triazolo[4,3-a]pyridin-3-yl}-4-methylbenzoate] | 0.0171
Cc1ccc(C(=O)O)cc1-c1nnc2ccc(CCc3ccc(F)cc3F)cn12 [Example 21, 3-{6-[2-(2,4-difluorophenyl)ethyl][1,2,4]triazolo[4,3-a]pyridin-3-yl}-4-methylbenzoic acid] | 2.71
NC(=O)c1ccc(-c2nnc3ccc(Sc4ccc(F)cc4F)cn23)cc1 [Example 23, 4-{6-[(2,4-difluorophenyl)thio][1,2,4]triazolo[4,3-a]pyridin-3-yl}benzamide] | 0.201
CNC(=O)c1ccc(-c2nnc3ccc(Sc4ccc(F)cc4F)cn23)cc1 [Example 24, 4-{6-[(2,4-difluorophenyl)thio][1,2,4]triazolo[4,3-a]pyridin-3-yl}-N-methylbenzamide] | 0.293
O=C(NCCO)c1ccc(-c2nnc3ccc(Sc4ccc(F)cc4F)cn23)cc1 [Example 25, 4-{6-[(2,4-difluorophenyl)thio][1,2,4]triazolo[4,3-a]pyridin-3-yl}-N-(2-hydroxyethyl)benzamide] | 0.0936
NC(=O)c1cccc(-c2nnc3ccc(Sc4ccc(F)cc4F)cn23)c1 [Example 26, 3-{6-[(2,4-difluorophenyl)thio][1,2,4]triazolo[4,3-a]pyridin-3-yl}benzamide] | 0.241
NC(=O)c1ccc(-c2nnc3ccc(Cc4ccc(F)cc4F)cn23)cc1 [Example 27, 4-[6-(2,4-difluorobenzyl)[1,2,4]triazolo[4,3-a]pyridin-3-yl]benzamide] | 3.02
NC(=O)c1cccc(-c2nnc3ccc(Cc4ccc(F)cc4F)cn23)c1 [Example 28, 3-[6-(2,4-difluorobenzyl)[1,2,4]triazolo[4,3-a]pyridin-3-yl]benzamide] | 2.98
COC(=O)c1cccc(-c2nnc3ccc(C(=O)c4ccc(F)cc4F)cn23)c1 [Example 29, methyl 3-[6-(2,4-difluorobenzoyl)[1,2,4]triazolo[4,3-a]pyridin-3-yl]benzoate] | 14
NC(=O)c1cccc(-c2nnc3ccc(C(=O)c4ccc(F)cc4F)cn23)c1 [Example 30, 3-[6-(2,4-difluorobenzoyl)[1,2,4]triazolo[4,3-a]pyridin-3-yl]benzamide] | > 100
CC(C)(CC(O)CO)c1nnc2ccc(Sc3ccc(F)cc3F)cn12 (stereo not drawn) [Example 33, 4-{6-[(2,4-difluorophenyl)thio][1,2,4]triazolo[4,3,a]pyridin-3-yl}-4-methylpentane-1,2-diol hydrochloride] | 1.74
CC(C)c1nnc2cc(Cl)c(Sc3ccc(F)cc3F)c(Cl)n12 [Example 34, 5,7-dichloro-6-[(2,4-difluorophenyl)thio]-3-isopropyl[1,2,4]triazolo[4,3-a]pyridine] | 3.38
CC(C)c1nnc2cc(Cl)c(Sc3ccc(F)cc3F)cn12 [Example 35, 7-chloro-6-[(2,4-difluorophenyl)thio]-3-isopropyl[1,2,4]triazolo[4,3-a]pyridine hydrochloride] | 0.889
CC(C)c1nnc2ccc(Sc3ccc(F)cc3F)c(Cl)n12 [Example 36, 5-chloro-6-[(2,4-difluorophenyl)thio]-3-isopropyl[1,2,4]triazolo[4,3-a]pyridine] | 0.0123
CCCCSc1ccc2nnc(C(C)C)n2c1 [Example 37, 6-(butylthio)-3-isopropyl[1,2,4]triazolo[4,3-a]pyridine hydrochloride] | > 100
Cc1c(Sc2ccc(F)cc2F)ccc2nnc(C(C)C)n12 [Example 38, 6-[(2,4-difluorophenyl)thio]-3-isopropyl-5-methyl[1,2,4]triazolo[4,3-a]pyridine] | 0.101
CC(C)c1nnc2cc(Cl)c(Sc3ccc(F)cc3F)c(Br)n12 [Example 39, 5-bromo-7-chloro-6-[(2,4-difluorophenyl)thio]-3-isopropyl[1,2,4]triazolo[4,3-a]pyridine] | 6.08
Fc1cccc(F)c1-c1nnc2ccc(Br)cn12 [Example 40, 6-bromo-3-(2,6-difluorophenyl)[1,2,4]triazolo[4,3-a]pyridine] | 13.3
Cc1ccc(C(N)=O)cc1-c1nnc2ccc(Sc3ccc(F)cc3F)cn12 [Example 41, 3-{6-[(2,4-difluorophenyl)thio][1,2,4]triazolo[4,3-a]pyridin-3-yl}-4-methylbenzamide] | 0.0608
Cc1ccc(C(=O)NCC(N)=O)cc1-c1nnc2ccc(Sc3ccc(F)cc3F)cn12 [Example 42, N-(3-{6-[(2,4-difluorophenyl)thio][1,2,4]triazolo[4,3-a]pyridin-3-yl}-4-methylbenzoyl)glycinamide] | 0.0465
Cc1ccc(C(=O)NCCO)cc1-c1nnc2ccc(Sc3ccc(F)cc3F)cn12 [Example 43, 3-{6-[(2,4-difluorophenyl)thio][1,2,4]triazolo[4,3-a]pyridin-3-yl}-N-(2-hydroxyethyl)-4-methylbenzamide] | 0.0205
O=C(CO)N1CCC(c2nnc3ccc(Sc4ccc(F)cc4F)cn23)CC1 [Example 44, 2-(4-{6-[(2,4-difluorophenyl)thio][1,2,4]triazolo[4,3-a]pyridin-3-yl}piperidin-1-yl)-2-oxoethanol hydrochloride] | 0.212
Cc1cc(CNCCO)ccc1-c1nnc2ccc(Sc3ccc(F)cc3F)cn12 [Example 45, 2-[(4-{6-[(2,4-difluorophenyl)thio][1,2,4]triazolo[4,3-a]pyridin-3-yl}-3-methylbenzyl)amino]ethanol dihydrochloride] | 0.0333
CC1(c2nnc3ccc(Sc4ccc(F)cc4F)cn23)CC1 [Example 46, 6-[(2,4-difluorophenyl)thio]-3-(1-methylcyclopropyl)[1,2,4]triazolo[4,3-a]pyridine hydrochloride] | 0.0249
Fc1ccc(Sc2ccc3nnc(-c4c(F)cccc4F)n3c2)c(F)c1 [Example 47, 3-(2,6-difluorophenyl)-6-[(2,4-difluorophenyl)thio][1,2,4]triazolo[4,3-a]pyridine] | 0.0072
CC(C)(C)c1nnc2ccc(Sc3ccc(F)cc3F)cn12 [Example 48, 3-tert-butyl-6-[(2,4-difluorophenyl)thio][1,2,4]triazolo[4,3-a]pyridine] | 0.0048
CNC(=O)c1ccc(C)c(-c2nnc3ccc(Sc4ccc(F)cc4F)cn23)c1 [Example 49, 3-{6-[(2,4-difluorophenyl)thio][1,2,4]triazolo[4,3-a]pyridin-3-yl}-N,4-dimethylbenzamide] | 0.0399
